The values that follow are results of earlier work, collected in patent publication EP4473960A1, “VACCINE FORMULATION COMPRISING A SURFACTANT THAT DOES NOT COMPRISE AN ESTER BOND” (Vaxxinova Nederland BV, priority 2023, dated 2024).

Where two headings read alike, the source gives them in different places.

Setting [1] is: Table 2, surfactants without ester bond.
The mark [2] stands for this setting: Table 3A, HLB values of surfactants discussed.

As for Polyoxyethylen (2) cetylether [Brij 52], the HLB under setting [1] was 5,3 and the HLB under setting [2] is on record as 5,3.

Regarding Polyoxyethylen (2) oleylether [Brij 92], the HLB is reported as 4,9 under setting [1] and 4,9 under setting [2].

As for “Polyoxyethylen (2) stearylether [Brij 72]”, the HLB runs as follows: under setting [1], 4,9; under setting [2], 4,9.

“Polyoxyethylen (4) laurylether [Brij 30]”: the HLB is recorded as 9,7 under setting [1] and 9,7 under setting [2].

As for “Polyoxyethylen (6) cetylstearylether [Cremophor A6]”, the HLB reads like this: under setting [1], 10-12; under setting [2], 10 - 12.

With Polyoxyethylen (9) laurylether [Thesit], the HLB under setting [1] is on record as 11.2.

Regarding Polyoxyethylen (10) monodecylether, the HLB under setting [1] was 14.6.

Take Polyoxyethylen (10) tridecylether: under setting [1], the HLB is on record as 13.7.

“Polyoxyethylen (20) cetylstearylether [Cremophor A20]”: the HLB under setting [1] is reported as 14-16.

For the substance “Polyoxyethylen (25) cetylstearylether [Cremophor A25]”, the HLB is reported as 15-17 under setting [1] and 15-17 under setting [2].

In the case of Sorbitan monooleate [Span 80], the “Hydrophilic-Lipophilic Balance (HLB)” value is on record as 4,3. For the same substance, the HLB under setting [2] was 4,3.

Sorbitan palmitate [Span 40]: the HLB under setting [2] is given as 6.7.

For Sorbitan stearate [Span 60], the HLB under setting [2] is listed as 4,7.

Consider Sorbitan tristearate [Span 65], for which the HLB under setting [2] is reported as 2,2.
